Here are results for 14 molecules from patent US20250206718A1, “NITROGEN-CONTAINING HETEROCYCLIC DERIVATIVE INHIBITOR, PREPARATION METHOD THEREFOR AND USE THEREOF” (SHANGHAI HANSOH BIOMEDICAL CO., LTD., priority 2022, published 2025).

The term AUC(0-t) denotes the area under the concentration-time curve up to a stated or last time point. The low end stands for less exposure, the high end for more exposure. The Cmax is the maximum level reached in the sampled fluid or tissue. Usually half-life stands for the time in which the quantity being followed falls by half. The low end stands for rapid decline, the high end for slow decline.

For series [1], the target named is Ba/F3 EGFR Del19/T790M/C797S cells (Homo sapiens, UniProt P00533, T790M/C797S, cells depend on it, form not given). As to the kind of experiment: Cell proliferation inhibition (Cell Titer-Glo), Ba/F3 EGFR Del19/T790M/C797S. The format is cell-based, mouse. As to conditions: 72 hours, CellTiter-Glo, read-out: Ba/F3 EGFR Del19_T790M_C797S IC50. The text has this: (§1) Experimental objective: The objective of this test example is to test the inhibitory activity of compounds on the proliferation of different EGFR C797S drug-resistant mutant cell lines Ba/F3 EGFR Del19/T790M/C797S, Ba/F3 EGFR L858R/T790M/C797S, and Ba/F3 EGFR Del19/C797S.
(§2) • Ba/F3 EGFR Del19/T790M/C797S cells were purchased from KYinno Biotechnology Co., Ltd.; • Ba/F3 EGFR Del19/C797S cells were purchased from CoBioer Biosciences Co., Ltd.; • Ba/F3 EGFR L858R/T790M/C797S cells were purchased from CoBioer Biosciences Co., Ltd.; • Cell Titer-Glo was purchased from Promega, with a catalog number of G7573; • RPMI 1640 was purchased from Gibco, with a catalog number of 22400089; • FBS was purchased from Gibco, with a catalog number of 10091148; • cell culture plates were purchased from Corning, with a catalog number of 3610.
(§3) The inhibitory activity of the compound on the proliferation of different EGFR C797S drug-resistant mutant cell lines was detected using the Cell Titer-Glo method. The different cell lines were cultured in RPMI 1640 complete culture medium containing 10% FBS under conditions of 37° C. and 5% CO2, the cells were collected by centrifugation when growing to a certain density, and adjusted to appropriate cell density after counting, the cells were spread on a white 96-well plate at 90 μL/well, and cultured in a 37° C., 5% CO2 incubator overnight, prepared compound solutions of different concentrations were added at 10 μL/well, corresponding solvent controls were set, and all wells were cultured in a 37° C., 5% CO2 incubator for 72 hours, 50 μL of CellTiter-Glo solution was added to each well, shook and mixed evenly, and incubated in the dark for 10 minutes, and a BioTek Synergy H1 microplate reader was used for reading.
(§4) The luminescence signal value was used to calculate the inhibition rate. Graphpad Prism software was used to fit the concentration and inhibition rate to a nonlinear regression curve, so as to obtain the IC50 value, as shown in the Table below for details.
In general terms: In ATP-based viability assays light output follows the ATP content of the culture.

For series [2], the target named is Ba/F3 EGFR Del19/C797S cells (Homo sapiens, UniProt P00533, C797S, cells depend on it, form not given). The series can be described thus: Cell proliferation inhibition (Cell Titer-Glo), Ba/F3 EGFR Del19/C797S. In kind it is cell-based, mouse. To be noted: 72 hours, CellTiter-Glo, read-out: Ba/F3 EGFR Del19/C797S IC50.
Excerpt: as §1, §2, §3, §4

Series [3] is described as follows: Rat pharmacokinetic evaluation test. In kind it is in vivo. As to conditions: Sprague-Dawley (SD), po, SD rats, male, p.o. 5 mg/kg, plasma. As to the method: SD rats were used as test animals to study the pharmacokinetic behavior of the compounds of the present invention in the rat body (plasma) after oral administration at a dose of 5 mg/kg.
2.2 Experimental Animals: 3 SD Rats/Group, Male, from Shanghai Jiesijie Experimental Animal Co., Ltd., Animal Production License Number (SCXK (Shanghai) 2013-0006 No. 311620400001794).
• Oral administration drug preparation: 20% solutol HS15 in 0.5% MC (methylcellulose)
20 g of a Solutol HS15 solid and 0.5 g of a MC solid powder were weighed and dissolved in 80 mL of purified water, and the mixture was vortexed, mixed until uniform, and subjected to ultrasound treatment to obtain a clear solution of 20% solutol HS15 in 0.5% MC.
The example compound was weighed into a 20 mL glass bottle, the solution was added thereto and the mixture was subjected to ultrasound treatment for 10 minutes to obtain a clear solution with a concentration of 0.5 mg/mL.
3 male SD rats were administered p.o. respectively after the 3 male SD rats were fasted overnight; the p.o. dose was 5 mg/kg and the administration volume was 10 mL/kg.
Blood collection: Before and after administration to rats, 0.2 mL of blood was collected from the jugular vein at 0.25, 0.5, 1, 2, 4, 6, 8 and 24 h, and placed in an EDTA-K2 anticoagulation tube, which was centrifuged at 6000 rpm at 4° C. for 6 min to separate plasma which was stored at −80° C.; the rats were fed 4 h after administration.
1) 160 μL of acetonitrile was added to 40 μL of plasma sample for precipitation, mixed and centrifuged at 3500×g for 5 to 20 min.
2) the treated supernatant solution was taken and subjected to LC/MS/MS to analyze the concentrations of the test compounds. LC/MS/MS analysis instrument: AB Sciex API 4000 Qtrap.
• Liquid phase conditions: Shimadzu LC-20AD pump • Chromatographic column: Agilent ZORBAX XDB-C18 (50×2.1 mm, 3.5 μm) mobile phase: liquid A is 0.1% aqueous formic acid solution, liquid B is acetonitrile • Flow rate: 0.4 mL/min • Elution time: 0-4.0 min, the eluent is as follows:
The main pharmacokinetic parameters were calculated using WinNonlin 6.1.

In series [4] the target is Ba/F3 EGFR L858R/T790M/C797S cells (Homo sapiens, UniProt P00533, T790M/C797S/L858R, cells depend on it). The series can be described thus: Cell proliferation inhibition (Cell Titer-Glo), Ba/F3 EGFR L858R/T790M/C797S. The format is cell-based, mouse. To be noted: 72 hours, CellTiter-Glo, read-out: Ba/F3 EGFR L858R_T790M_C797S IC50.
Excerpt: as §1, §2, §3, §4

Sequence of Ba/F3 EGFR Del19/T790M/C797S cells (P00533 with tags, fused parts or gaps DEL746-750/T790M/C797S, form open): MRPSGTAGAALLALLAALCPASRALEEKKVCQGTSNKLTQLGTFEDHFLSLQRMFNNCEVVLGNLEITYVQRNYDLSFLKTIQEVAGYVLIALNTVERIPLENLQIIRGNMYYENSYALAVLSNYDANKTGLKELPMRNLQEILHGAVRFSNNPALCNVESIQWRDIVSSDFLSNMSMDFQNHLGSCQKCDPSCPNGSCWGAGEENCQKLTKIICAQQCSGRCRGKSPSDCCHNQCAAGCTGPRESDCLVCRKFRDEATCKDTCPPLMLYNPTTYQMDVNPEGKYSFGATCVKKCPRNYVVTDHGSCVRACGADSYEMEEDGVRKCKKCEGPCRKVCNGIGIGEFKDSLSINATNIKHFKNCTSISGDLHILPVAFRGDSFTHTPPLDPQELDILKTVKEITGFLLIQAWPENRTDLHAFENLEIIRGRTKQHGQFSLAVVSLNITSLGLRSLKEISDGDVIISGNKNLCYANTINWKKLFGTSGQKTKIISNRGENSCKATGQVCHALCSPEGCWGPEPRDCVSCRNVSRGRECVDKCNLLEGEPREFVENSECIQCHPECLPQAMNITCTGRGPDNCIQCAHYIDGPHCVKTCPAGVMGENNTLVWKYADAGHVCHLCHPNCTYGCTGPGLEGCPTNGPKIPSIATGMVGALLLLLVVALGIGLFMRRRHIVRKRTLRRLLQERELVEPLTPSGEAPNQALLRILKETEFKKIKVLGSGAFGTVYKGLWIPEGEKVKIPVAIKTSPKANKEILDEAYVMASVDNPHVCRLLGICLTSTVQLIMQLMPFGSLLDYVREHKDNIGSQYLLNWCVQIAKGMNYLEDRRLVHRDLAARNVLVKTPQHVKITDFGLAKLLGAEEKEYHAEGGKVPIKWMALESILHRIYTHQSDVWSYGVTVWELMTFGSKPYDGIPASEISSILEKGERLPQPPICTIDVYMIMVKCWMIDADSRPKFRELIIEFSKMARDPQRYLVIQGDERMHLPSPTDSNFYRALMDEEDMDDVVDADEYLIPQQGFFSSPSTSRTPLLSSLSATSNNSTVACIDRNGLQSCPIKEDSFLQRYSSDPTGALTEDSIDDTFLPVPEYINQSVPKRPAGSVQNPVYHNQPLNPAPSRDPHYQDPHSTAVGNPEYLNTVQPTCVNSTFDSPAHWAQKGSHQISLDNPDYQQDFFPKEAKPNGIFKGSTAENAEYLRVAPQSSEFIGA
Sequence of Ba/F3 EGFR Del19/C797S cells (P00533 with tags, fused parts or gaps DEL746-750/C797S, form open): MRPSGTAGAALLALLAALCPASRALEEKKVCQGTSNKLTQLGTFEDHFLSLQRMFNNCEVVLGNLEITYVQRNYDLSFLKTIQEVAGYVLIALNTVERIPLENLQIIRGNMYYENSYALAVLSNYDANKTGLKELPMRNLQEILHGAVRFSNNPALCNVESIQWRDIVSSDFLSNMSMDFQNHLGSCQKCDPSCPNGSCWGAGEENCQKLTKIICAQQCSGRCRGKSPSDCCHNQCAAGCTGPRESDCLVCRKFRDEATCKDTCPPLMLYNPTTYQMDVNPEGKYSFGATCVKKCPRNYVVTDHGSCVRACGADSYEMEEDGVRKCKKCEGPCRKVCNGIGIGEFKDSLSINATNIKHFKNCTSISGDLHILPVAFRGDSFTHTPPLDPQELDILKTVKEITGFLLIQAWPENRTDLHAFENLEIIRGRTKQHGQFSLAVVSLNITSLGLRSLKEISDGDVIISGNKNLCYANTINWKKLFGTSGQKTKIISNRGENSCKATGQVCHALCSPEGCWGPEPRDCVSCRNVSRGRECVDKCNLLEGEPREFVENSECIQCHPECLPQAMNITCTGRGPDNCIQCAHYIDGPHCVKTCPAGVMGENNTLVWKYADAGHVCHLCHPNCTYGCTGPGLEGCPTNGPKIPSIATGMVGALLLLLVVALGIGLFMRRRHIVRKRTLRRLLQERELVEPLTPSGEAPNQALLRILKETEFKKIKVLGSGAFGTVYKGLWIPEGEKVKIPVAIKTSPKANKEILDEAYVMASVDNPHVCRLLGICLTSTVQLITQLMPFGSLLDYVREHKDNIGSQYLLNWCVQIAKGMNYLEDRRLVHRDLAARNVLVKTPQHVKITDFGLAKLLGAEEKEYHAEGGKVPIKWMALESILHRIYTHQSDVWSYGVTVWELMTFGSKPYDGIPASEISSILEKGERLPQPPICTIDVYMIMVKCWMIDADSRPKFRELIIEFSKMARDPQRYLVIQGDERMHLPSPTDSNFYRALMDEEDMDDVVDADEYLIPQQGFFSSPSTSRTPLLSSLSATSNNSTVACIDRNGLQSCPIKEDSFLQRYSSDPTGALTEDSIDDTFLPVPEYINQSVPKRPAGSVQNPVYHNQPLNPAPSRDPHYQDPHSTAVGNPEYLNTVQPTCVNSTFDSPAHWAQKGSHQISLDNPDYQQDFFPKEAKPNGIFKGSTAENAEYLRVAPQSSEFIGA
Sequence of Ba/F3 EGFR L858R/T790M/C797S cells (P00533 whole entry T790M/C797S/L858R): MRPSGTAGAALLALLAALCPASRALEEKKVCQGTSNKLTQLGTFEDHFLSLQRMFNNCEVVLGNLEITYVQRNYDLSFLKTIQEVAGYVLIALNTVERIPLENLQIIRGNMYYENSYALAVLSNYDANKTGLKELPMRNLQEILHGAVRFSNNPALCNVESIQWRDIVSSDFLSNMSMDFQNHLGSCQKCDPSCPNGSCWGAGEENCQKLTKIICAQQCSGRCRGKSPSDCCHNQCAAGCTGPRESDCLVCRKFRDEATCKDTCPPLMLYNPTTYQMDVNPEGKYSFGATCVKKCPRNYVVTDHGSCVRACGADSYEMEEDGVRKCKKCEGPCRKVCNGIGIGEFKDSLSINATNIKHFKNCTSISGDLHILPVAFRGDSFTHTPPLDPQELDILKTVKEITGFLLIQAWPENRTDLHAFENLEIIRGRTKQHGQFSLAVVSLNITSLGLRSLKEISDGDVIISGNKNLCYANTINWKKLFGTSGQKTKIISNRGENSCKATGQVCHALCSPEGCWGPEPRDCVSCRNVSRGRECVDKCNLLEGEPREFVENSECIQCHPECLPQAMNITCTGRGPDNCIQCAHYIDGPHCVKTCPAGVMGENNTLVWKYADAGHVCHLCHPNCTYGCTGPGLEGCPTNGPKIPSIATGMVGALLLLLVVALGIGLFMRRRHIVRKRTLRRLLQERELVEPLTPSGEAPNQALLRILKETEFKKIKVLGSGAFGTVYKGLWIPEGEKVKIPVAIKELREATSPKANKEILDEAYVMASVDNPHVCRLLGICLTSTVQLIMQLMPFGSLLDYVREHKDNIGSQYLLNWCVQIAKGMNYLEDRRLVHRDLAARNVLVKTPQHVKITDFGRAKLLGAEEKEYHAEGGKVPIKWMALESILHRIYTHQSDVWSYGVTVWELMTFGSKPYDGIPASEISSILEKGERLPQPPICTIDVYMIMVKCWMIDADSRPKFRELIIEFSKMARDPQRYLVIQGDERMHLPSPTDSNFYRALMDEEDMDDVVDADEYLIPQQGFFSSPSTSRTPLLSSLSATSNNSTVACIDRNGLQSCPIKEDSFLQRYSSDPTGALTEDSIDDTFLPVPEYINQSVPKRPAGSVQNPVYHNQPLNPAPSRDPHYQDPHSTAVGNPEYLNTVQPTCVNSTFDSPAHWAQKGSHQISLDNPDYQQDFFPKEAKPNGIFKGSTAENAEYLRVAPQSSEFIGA

As for `Cc1nn(C)cc1-c1nccc(Nc2cc3c(C(C)C)ccc(N4C[C@H](CS(C)(=O)=O)[C@H]4C)c3cn2)n1` [Example 1, N-(2-(1,3-dimethyl-1H-pyrazolyl-4-yl)pyrimidin-4-yl)-5-isopropyl-8-((2R,3S)-2-methyl-3-((methanesulfonyl)methyl)azabut-1-yl)isoquinolin-3-amine], the GI50 in series [1] came to 4.5 nM. Moreover, the GI50 in series [2] is 12 nM. In addition, in series [3], the AUC(0-t) was found to be 1410 ng·h/mL, the Cmax turned out to be 287 ng/mL and the half-life was 2.7 h.

Take `[2H]C([2H])([2H])n1cc(-c2nccc(Nc3cc4c(C(C)C)ccc(N5C[C@H](CS(C)(=O)=O)[C@H]5C)c4cn3)n2)c(C)n1` [Example 2, 5-isopropyl-N-(2-(3-methyl-1-(methyl-d3)-1H-pyrazol-4-yl)pyrimidin-4-yl)-8-((2R,3S)-2-methyl-3-((methylsulfonyl)methyl)azetidin-1-yl)isoquinolin-3-amine]: the GI50 in series [1] stood at 6.2 nM; in series [2], 13 nM.

In the case of `[2H]C([2H])([2H])c1nn(C([2H])([2H])[2H])cc1-c1nccc(Nc2cc3c(C(C)C)ccc(N4C[C@H](CS(C)(=O)=O)[C@H]4C)c3cn2)n1` [Example 4, N-(2-(1,3-bis(methyl-d3)-1H-pyrazol-4-yl)pyrimidin-4-yl)-5-isopropyl-8-((2R,3S)-2-methyl-3-((methylsulfonyl)methyl)azabut-1-yl)isoquinolin-3-amine], the GI50 in series [1] was 7.7 nM; in series [2], 20 nM.

Consider `[2H]C([2H])([2H])n1cc(-c2nccc(Nc3cc4c(C(C)C)ccc(N5C[C@H](CS(C)(=O)=O)[C@H]5C)c4cn3)n2)c(Cl)n1` [Example 6, N-(2-(3-chloro-1-(methyl-d3)-1H-pyrazol-4-yl)pyrimidin-4-yl)-5-isopropyl-8-((2R,3S)-2-methyl-3-((methylsulfonyl)methyl)azetidin-1-yl)isoquinolin-3-amine], for which the results for the GI50 in series [1], in series [4] and in series [2] were 5.1 nM, 13 nM and 5.1 nM, respectively.

On to `CC(C)c1ccc(N2CC(NS(C)(=O)=O)C2)c2cnc(Nc3ccnc(-c4cn(C)nc4Cl)n3)cc12` [Example 44, N-(1-(3-((2-(3-chloro-1-methyl-1H-pyrazol-4-yl)pyrimidin-4-yl)amino)-5-isopropylisoquinolin-8-yl)azetidin-3-yl)methanesulfonamide], for which the GI50 came out at 10 nM in series [1] and 8.4 nM in series [2].

Regarding `CC(C)c1ccc(N2CC(N(C)S(C)(=O)=O)C2)c2cnc(Nc3ccnc(-c4cn(C)nc4Cl)n3)cc12` [Example 67, N-(1-(3-((2-(3-chloro-1-methyl-1H-pyrazol-4-yl)pyrimidin-4-yl)amino)-5-isopropylisoquinolin-8-yl)azetidin-3-yl)-N-methyl methanesulfonamide], in series [1], the GI50 is 4 nM. For the same molecule, the GI50 in series [2] stood at 3.2 nM. Moreover, in series [3], the AUC(0-t) amounted to 2170 ng·h/mL, the Cmax came out at 186 ng/mL and the half-life was 2.7 h.

Take `COC(C)Cn1cc(-c2nccc(Nc3cc4c(C(C)C)ccc(N5C[C@H](CS(C)(=O)=O)[C@H]5C)c4cn3)n2)c(Cl)n1` (stereo partly drawn) [Example 116A, N-(2-(3-chloro-1-(2-methoxypropyl)-1H-pyrazol-4-yl)pyrimidin-4-yl)-5-isopropyl-8-((2R,3S)-2-methyl-3-((methanesulfonyl)methyl)azetidin-1-yl)isoquinolin-3-amine]: the GI50 in series [1] worked out at 7.6 nM; in series [2], 33 nM.

On to `CC(C)c1c(F)cc(N2C[C@H](CS(C)(=O)=O)[C@H]2C)c2cnc(Nc3ccnc(-c4cn(C)nc4Cl)n3)cc12` [Example 120, N-(2-(3-chloro-1-methyl-1H-pyrazol-4-yl)pyrimidin-4-yl)-6-fluoro-5-isopropyl-8-((2R,3S)-2-methyl-3-((methanesulfonyl)methyl)azetidin-1-yl)isoquinolin-3-amine], for which the GI50 in series [1] was determined as 7.1 nM; in series [4], 14 nM; in series [2], 11 nM.

In the case of `CC(C)c1c(F)cc(N2C[C@H](N(C)S(C)(=O)=O)[C@H]2C)c2cnc(Nc3ccnc(-c4cn(C)nc4Cl)n3)cc12` [Example 121, N-((2R,3S)-1-(3-((2-(3-chloro-1-methyl-1H-pyrazol-4-yl)pyrimidin-4-yl)amino)-6-fluoro-5-isopropylisoquinolin-8-yl)-2-methylazetidin-3-yl)-N-methyl methanesulfonamide], the GI50 in series [1] came out at 4.5 nM; in series [4], 15 nM; in series [2] it was 6.2 nM.

Take `Cc1nn(C)cc1-c1nccc(Nc2cc3c(C(C)C)c(F)cc(N4C[C@H](CS(C)(=O)=O)[C@H]4C)c3cn2)n1` [Example 125, N-(2-(1,3-dimethyl-1H-pyrazol-4-yl)pyrimidin-4-yl)-6-fluoro-5-isopropyl-8-((2R,3S)-2-methyl-3-((methanesulfonyl)methyl)azetidin-1-yl)isoquinolin-3-amine]: the GI50 in series [1] amounted to 6.8 nM; in series [2] it was 18 nM.

Turning to `Cc1nn(C)cc1-c1nccc(Nc2cc3c(C(C)C)c(F)cc(N4C[C@H](N(C)S(C)(=O)=O)[C@H]4C)c3cn2)n1` [Example 127, N-((2R,3S)-1-(3-((2-(1,3-dimethyl-1H-pyrazol-4-yl)pyrimidin-4-yl)amino)-6-fluoro-5-isopropylisoquinolin-8-yl)-2-methylazetidin-3-yl)-N-methyl methanesulfonamide], the GI50 came to 4.5 nM in series [1] and 7.8 nM in series [2].

`CC(C)c1cnc(N2CC(N(C)S(C)(=O)=O)C2)c2cnc(Nc3ccnc(-c4cn(C)nc4Cl)n3)cc12` [Example 130, N-(1-(6-((2-(3-chloro-1-methyl-1H-pyrazol-4-yl)pyrimidin-4-yl)amino)-4-isopropyl-2,7-diazanaphthalen-1-yl)azetidin-3-yl)-N-methyl methanesulfonamide]: the GI50 in series [1] was 8.1 nM; in series [2], 5.9 nM.

Take `CC(C)c1ccc(N2C[C@H](CS(C)(=O)=O)[C@H]2C)c2cnc(Nc3ccnc(-c4cn(CC(O)CF)nc4Cl)n3)cc12` (stereo partly drawn) [Example 172, 1-(3-chloro-4-(4-((5-isopropyl-8-((2R,3S)-2-methyl-3-((methanesulfonyl)methyl)azetidin-1-yl)isoquinolin-3-yl)amino)pyrimidin-2-yl)-1H-pyrazol-1-yl)-3-fluoropropan-2-ol]: the values for the GI50 in series [1] and in series [2] were 5 nM and 33 nM, respectively.

With `CC(C)c1ccc(N2C[C@H](CS(C)(=O)=O)[C@H]2C)c2cnc(Nc3ccnc(-c4cn(C[C@@H]5CCO5)nc4Cl)n3)cc12` [Example 182, N-(2-(3-chloro-1-(((S)-oxetan-2-yl)methyl)-1H-pyrazol-4-yl)pyrimidin-4-yl)-5-isopropyl-8-((2R,3S)-2-methyl-3-((methanesulfonyl)methyl)azetidin-1-yl)isoquinolin-3-amine], the GI50 in series [1] worked out at 4.4 nM; in series [4], 10 nM.
